Experimental data reported in patent US10238713B2, “Cyclic tetrapeptides and therapeutic applications thereof” (LODZ UNIVERSITY OF TECHNOLOGY, priority 2010, dated 2019).
Non-standard residues stand in square brackets, D forms with d. Residues, ends and D or L forms follow the SMILES beside them. β3hF = N[C@H](CC(=O)O)Cc1ccccc1

Columns and labels:
[1] = test system: CBA mice, humoral immune response to sheep erythrocytes; experiment: Primary humoral immune response to SRBC in vivo (antibody-forming cells in spleen); details: 10 or 100 μg, intraperitoneal, 2 h after immunization, measured after 4 days; FIG. 6
Protocol: CBA female mice, 8-12 weeks old, were delivered by The Institute of Laboratory Medicine, Lodz, Poland. The mice had free access to water and pelleted food. The local ethics committee approved the study. Sheep erythrocytes (SRBC) were delivered by Wroclaw University of Life and Environmental Sciences, Poland, and maintained on RPMI-1640 medium.
Mice were immunized with 0.2 ml of 5% SRBC suspension (0.5 ml of SRBC pellet re-suspended to a volume of 10 ml of 0.9% NaCl), intraperitonelly. After 4 days the number of antibody-forming cells (AFC) in the spleens was determined using an assay of local hemolysis in agar gel (per Mishell et al., J Exp Med, 1967, 126, 423-442). The results are presented in FIG. 6 as a mean value of 5 mice ±standard error and expressed as AFC number per 10^6 of viable splenocytes.
Mice were immunized with SRBC as described above and after 2 h were given 10 or 100 μg of the compound of formula I-A. Cyclosporin A (CsA) served as a reference drug. The number of antibody-forming cells to SRBC was measured after 4 days.

[2] = test system: mice, carrageenan air pouch; experiment: Carrageenan air-pouch test (exudate cell number); type: in vivo, mouse; details: peptides 100 μg i.p. one hour before carrageenan, 24 h; FIGS. 18A-18B
Summary of the method: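 Mice received peptide i.p. (100 μg, from DMSO/0.9% NaCl) one hour before intra-pouch 1% carrageenan in a 3-day dorsal air pouch; dexamethasone i.p. served as reference. Exudate was aspirated 24 h later after adding 1 ml saline, and cells were counted by hemocytometer (×10^6 per mouse, mean ±SE, 10 mice/group).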

Compound: O=C1C[C@H](Cc2ccccc2)NC(=O)[C@@H]2CCCN2C(=O)[C@@H]2CCCN2C(=O)[C@H](Cc2ccccc2)N1 [I-A] (cyclo(FPP[β3hF]))
- inhibition of the number of antibody-forming cells to SRBC [1]: more inhibitory at both doses than CsA
- air pouch exudate cell number, P vs Control [2]: 0.0005
